From US8546401B2, “5,6-disubstituted oxindole-derivatives and use thereof for treating vasopressin-dependent diseases” (AbbVie Deutschland GmbH & Co. KG, priority 2007, dated 2013)

How the values were obtained:
human oxytocin receptors = target: T1, human oxytocin receptors (Homo sapiens, UniProt P30559); assay: Oxytocin receptor binding assay; settings: selectivity quotient
T1 construct: expressed in transfected cells; host or cells: HEK-293, transient expression; lysed and homogenized cells
T1 sequence (P30559 1-389): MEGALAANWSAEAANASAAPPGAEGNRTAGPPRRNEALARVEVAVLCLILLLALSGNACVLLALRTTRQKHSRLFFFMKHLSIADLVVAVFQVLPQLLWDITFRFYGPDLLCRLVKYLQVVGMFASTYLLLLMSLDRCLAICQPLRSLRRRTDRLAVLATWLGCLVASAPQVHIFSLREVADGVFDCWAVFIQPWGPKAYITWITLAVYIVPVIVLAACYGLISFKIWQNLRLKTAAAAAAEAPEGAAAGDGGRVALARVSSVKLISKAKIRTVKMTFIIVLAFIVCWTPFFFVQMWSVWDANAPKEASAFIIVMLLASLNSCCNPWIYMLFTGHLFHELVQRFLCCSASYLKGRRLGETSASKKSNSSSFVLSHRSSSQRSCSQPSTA
Protocol: 4. Oxytocin Receptor Binding Assay
The substances were dissolved in a concentration of 10^−2 M in DMSO and diluted with incubation buffer (50 mM Tris, 10 mM MgCl2, 0.1% BSA, pH 7.4).
Confluent HEK-293 cells with transiently expressing recombinant human oxytocin receptors were centrifuged at 750×g at room temperature for 5 minutes. The residue was taken up in ice-cold lysis buffer (50 mM Tris-HCl, 10% glycerol, pH 7.4 and Roche complete protease inhibitor) and subjected to an osmotic shock at 4° C. for 20 minutes. The lyzed cells were then centrifuged at 750×g at 4° C. for 20 minutes, the residue was taken up in incubation buffer, and aliquots of 10^7 cells/ml were prepared. The aliquots were frozen at −80° C. until used.
On the day of the experiment, the cells were thawed, diluted with incubation buffer and homogenized using a Multipette Combitip (Eppendorf, Hamburg). The reaction mixture of 0.250 ml was composed of 2 to 5×10^4 recombinant cells, 3-4 nM ^3H-oxytocin (PerkinElmer, NET 858) in the presence of test substance (inhibition plot) or only incubation buffer (total binding). The nonspecific binding was determined with 10^−6 M oxytocin (Bachem AG, H2510). Triplicate determinations were set up. Bound and free radioligand were separated by filtration under vacuum with Whatman GF/B glass fiber filters with the aid of a Skatron cell harvester 7000. The bound radioactivity was determined by liquid scintillation measurement in a Tricarb Beta counter, model 2000 or 2200CA (Packard).
The binding parameters were calculated by nonlinear regression analysis (SAS) in analogy to the LIGAND program of Munson and Rodbard (Analytical Biochem 1980; 107: 220-239). The Kd of ^3H-oxytocin for the recombinant hOT receptors is 7.6 nM and was used to determine the Ki.

[1] = target: T2, human vasopressin V1a receptor (Homo sapiens, UniProt P37288); assay: Vasopressin V1a receptor binding assay; settings: selectivity quotient, human receptors
T2 construct: expressed in transfected cells; host or cells: CHO-K1 (cell line hV1a_5_CHO), membrane preparation
T2 sequence (P37288 whole entry): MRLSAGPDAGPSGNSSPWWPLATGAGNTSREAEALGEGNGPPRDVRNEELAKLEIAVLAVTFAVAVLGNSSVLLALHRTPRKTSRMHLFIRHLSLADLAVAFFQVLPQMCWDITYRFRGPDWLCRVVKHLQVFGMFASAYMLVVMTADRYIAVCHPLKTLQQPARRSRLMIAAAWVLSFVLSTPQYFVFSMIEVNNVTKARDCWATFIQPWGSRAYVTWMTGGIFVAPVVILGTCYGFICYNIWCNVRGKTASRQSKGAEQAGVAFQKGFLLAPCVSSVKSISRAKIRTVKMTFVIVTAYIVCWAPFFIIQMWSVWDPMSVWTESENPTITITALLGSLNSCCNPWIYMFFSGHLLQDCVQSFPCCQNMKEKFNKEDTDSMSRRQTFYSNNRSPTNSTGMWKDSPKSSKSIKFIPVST
Protocol: 2. Vasopressin V1a Receptor Binding Assay:
The test substances were dissolved in a concentration of 10^−2 M in DMSO. Further dilution of these DMSO solutions took place in incubation buffer (50 mM Tris, 10 mM MgCl2, 0.1% BSA, pH 7.4).
(§1) CHO-K1 cells with stably expressed human vasopressin V1a receptor (clone 5) were harvested and homogenized in 50 mM Tris-HCl and in the presence of protease inhibitors (Roche complete Mini #1836170) using a Polytron homogenizer at intermediate setting for 2×10 seconds, and subsequently centrifuged at 40 000×g for 1 h. The membrane pellet was again homogenized and centrifuged as described and subsequently taken up in 50 mM Tris-HCl, pH 7.4, homogenized and stored in aliquots frozen in liquid nitrogen at −190° C.
(§2) The binding assay was carried out by the method based on that of Tahara et al. (Tahara A et al., Brit. J. Pharmacol. 125, 1463-1470 (1998)).
(§3) The incubation buffer was: 50 mM Tris, 10 mM MgCl2, 0.1% BSA, pH 7.4.
In the assay mixture (250 μl), membranes (20 μg/ml protein in incubation buffer) from CHO-K1 cells with stably expressed human V1a receptors (cell line hV1a—5_CHO) were incubated with 0.04 nM ^125I-AVP (8-Arg-vasopressin, NEX 128) in incubation buffer (50 mM Tris, 10 mM MgCl2, 0.1% BSA, pH 7.4) (total binding) or additionally with increasing concentrations of test substance (displacement experiment). The nonspecific binding was determined with 1 μM AVP (Bachem #H1780). Triplicate determinations were carried out.
After incubation (60 minutes at room temperature), the free radioligand was filtered off by vacuum filtration (Skatron cell harvester 7000) through Wathman GF/B glass fiber filter mats, and the filters were transferred into scintillation vials.
The liquid scintillation measurement took place in a model 2000 or 2200CA Tricarb instrument (Packard). Conversion of the measured cpm into dpm was carried out with the aid of a standard quench series.
(§4) The binding parameters were calculated by nonlinear regression in SAS. The algorithms of the program operate in analogy to the LIGAND analysis program (Munson P J and Rodbard D, Analytical Biochem. 107, 220-239 (1980)). The Kd of ^125I-AVP for the recombinant hV1a receptors was determined in saturation experiments. A Kd of 1.33 nM was used to determine the Ki.

[2] = target: T3, human vasopressin V1b receptor (Homo sapiens, UniProt P47901); assay: Vasopressin V1b receptor binding assay; settings: CHO-K1 membranes, 3H-AVP displacement
T3 construct: expressed in transfected cells; host or cells: CHO-K1 (cell line hV1b_3H2_CHO), membrane preparation
T3 sequence (P47901 1-424): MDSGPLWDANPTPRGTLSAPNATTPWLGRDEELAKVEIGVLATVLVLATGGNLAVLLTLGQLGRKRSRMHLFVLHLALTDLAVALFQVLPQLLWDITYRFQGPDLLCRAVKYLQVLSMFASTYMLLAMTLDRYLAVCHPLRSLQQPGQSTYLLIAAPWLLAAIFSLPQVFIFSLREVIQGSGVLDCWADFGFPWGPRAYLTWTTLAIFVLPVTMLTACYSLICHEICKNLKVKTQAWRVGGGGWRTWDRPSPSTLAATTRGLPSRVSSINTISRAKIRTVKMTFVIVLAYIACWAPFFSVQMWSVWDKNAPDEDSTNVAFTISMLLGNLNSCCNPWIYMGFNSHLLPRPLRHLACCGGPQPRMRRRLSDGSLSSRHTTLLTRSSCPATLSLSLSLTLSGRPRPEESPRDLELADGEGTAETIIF
Protocol: 1. Vasopressin V1b Receptor Binding Assay:
The test substances were dissolved in a concentration of 10^−2 M in DMSO and further diluted to 5×10^−4 M to 5×10^−3 M. These serial DMSO predilutions were diluted 1:10 with assay buffer. The substance concentration was further diluted 1:5 in the assay mixture (2% DMSO in the mixture).
as §1, with “V1b” for “V1a”, “3H2)” for “5)”
as §2, §3
In the assay mixture (250 μl), membranes (50 μg/ml protein in incubation buffer) from CHO-K1 cells with stably expressed human V1b receptors (cell line hV1b—3H2_CHO) were incubated with 1.5 nM ^3H-AVP (8-Arg-vasopressin, PerkinElmer #18479) in incubation buffer (50 mM Tris, 10 mM MgCl2, 0.1% BSA, pH 7.4) (total binding) or additionally with increasing concentrations of test substance (displacement experiment). The nonspecific binding was determined with […] (Bachem #H1780). All determinations were carried out as triplicate determinations. After incubation (60 minutes at room temperature), the free radioligand was filtered off by vacuum filtration (Skatron cell harvester 7000) through Wathman GF/B glass fiber filter mats, and the filters were transferred into scintillation vials. The liquid scintillation measurement took place in a model 2000 or 2200CA Tricarb instrument (Packard). Conversion of the measured cpm into dpm was carried out with the aid of a standard quench series.
as §4, with “^3H-AVP” for “^125I-AVP”, “human V1b” for “hV1a”, “is 0.4” for “was determined in saturation experiments. A Kd of 1.33”, “nM and” for “nM”

SMILES	Ki(h − OT)/Ki(h − V1b)* (human oxytocin receptors)	Ki(h − V1a)/Ki(h − V1b)* [1]	Ki [2] [nM]
CCOc1ncccc1C1(NC(=O)N2CCN(C3CCN(C)CC3)CC2)C(=O)N(S(=O)(=O)c2ccccc2)c2cc(F)c(Cl)cc21 (stereo not drawn) [Example 20, 4-(1-Methylpiperidin-4-yl)piperazine-1-[1-phenylsulfonyl-5-chloro-3-(2-ethoxypyridin-3-yl)-6-fluoro-2-oxo-2,3-dihydro-1H-indol-3-yl]carboxamide]	++ (25-75)	+ (10-<25)	1 to 10
CCOc1ncccc1C1(NC(=O)N2CCC(N3CCN(C)CC3)CC2)C(=O)N(S(=O)(=O)c2ccc(OC)cc2)c2cc(F)c(C#N)cc21 (stereo not drawn) [Example 7, 4-(4-Methylpiperazin-1-yl)piperidine-1-[5-cyano-3-(2-ethoxypyridin-3-yl)-6-fluoro-1-(4-methoxyphenylsulfonyl)-2-oxo-2,3-dihydro-1H-indol-3-yl]carboxamide]	+++ (>75)	+ (10-<25)	1 to 10
CCOc1ncccc1C1(NC(=O)N2CCN(C3CCN(CC)CC3)CC2)C(=O)N(S(=O)(=O)c2ccc(OC)cc2)c2cc(F)c(C#N)cc21 (stereo not drawn) [Example 6, 4-(1-Ethylpiperidin-4-yl)piperazine-1-[5-cyano-3-(2-ethoxypyridin-3-yl)-6-fluoro-1-(4-methoxyphenylsulfonyl)-2-oxo-2,3-dihydro-1H-indol-3-yl]carboxamide]	+++ (>75)	+++ (>75)	1 to 10
CCOc1ccccc1C1(NC(=O)N2CCC(N3CCN(C)CC3)CC2)C(=O)N(S(=O)(=O)c2ccc(OC)cc2OC)c2cc(F)c(C#N)cc21 (stereo not drawn) [Example 14, 4-(4-Methylpiperazin-1-yl)piperidine-1-[5-cyano-1-(2,4-dimethoxyphenylsulfonyl)-3-(2-ethoxyphenyl)-6-fluoro-2-oxo-2,3-dihydro-1H-indol-3-yl]carboxamide]	+++ (>75)	+ (10-<25)	1 to 10

The remaining lines, values ahead:

Ki(h − OT)/Ki(h − V1b)* (human oxytocin receptors)	Ki(h − V1a)/Ki(h − V1b)* [1]	Ki [2] [nM]	SMILES
+++ (>75)	+ (10-<25)	< 1	CCOc1ncccc1C1(NC(=O)N2CCC(N3CCN(C)CC3)CC2)C(=O)N(S(=O)(=O)c2ccc(OC)cc2OC)c2cc(F)c(Cl)cc21 (stereo not drawn) [Example 23, 4-(4-Methylpiperazin-1-yl)piperidine-1-[5-chloro-1-(2,4-dimethoxyphenylsulfonyl)-3-(2-ethoxypyridin-3-yl)-6-fluoro-2-oxo-2,3-dihydro-1H-indol-3-yl]carboxamide]
+ (10-<25)	+ (10-<25)	< 1	CCOc1ncccc1C1(OC(=O)N2CCN(C3CCN(C)CC3)CC2)C(=O)N(S(=O)(=O)c2ccc(OC)cc2)c2cc(F)c(Cl)cc21 (stereo not drawn) [Example 42, 5-Chloro-3-(2-ethoxypyridin-3-yl)-6-fluoro-1-(4-methoxyphenylsulfonyl)-2-oxo-2,3-dihydro-1H-indol-3-yl 4-(1-methylpiperidin-4-yl)piperazine-1-carboxylate]
+++ (>75)	+++ (>75)	< 1	CCOc1ncccc1C1(NC(=O)N2CCN(C3CCN(C)CC3)CC2)C(=O)N(S(=O)(=O)c2ccc(OC)cc2OC)c2cc(F)c(C#N)cc21 (stereo not drawn) [Example 1, 4-(1-Methylpiperidin-4-yl)piperazin-1-[5-cyano-1-(2,4-dimethoxyphenylsulfonyl)-3-(2-ethoxypyridin-3-yl)-6-fluoro-2-oxo-2,3-dihydro-1H-indol-3-yl]carboxamide]
+++ (>75)	+ (10-<25)	< 1	CCOc1ncccc1C1(NC(=O)N2CCC(C3CCN(C)CC3)CC2)C(=O)N(S(=O)(=O)c2ccc(OC)cc2OC)c2cc(F)c(Cl)cc21 (stereo not drawn) [Example 26, 1′-Methyl[4,4′]bipiperidinyl-1-[5-chloro-1-(2,4-dimethoxyphenylsulfonyl)-3-(2-ethoxy-pyridin-3-yl)-6-fluoro-2-oxo-2,3-dihydro-1H-indol-3-yl]carboxamide]
